The numbers were not newly measured in patent US11730745B1, “Kit and new method of treatment for skin basal cell and squamous cell carcinoma” (priority 2022, dated 2023), which cites them from elsewhere.

Molecules are shown by their SMILES.

The series concerns cancer. The conditions noted are these: additional treatment with Selenium.

For the molecule `[Se]` [Selenium], the “Decrease of the frequency of cancer” value is “more than 35%”.
